Laboratory results as given in the NIST ThermoML archive (doi:10.1021/je060025z).
± gives the expanded uncertainty stated by the source.

Legend:
[1] = 101.33 kPa, Liquid, Vibrating tube method
[2] = refractive index (Na D-line) (dimensionless); conditions: 101.33 kPa, Liquid, Standard Abbe refractometry

| SMILES | mass density ([1]; 293.15 K) | refractive index ([2]; 293.15 K) | further results |
| --- | --- | --- | --- |
| COC(C)(C)C [2-methoxy-2-methylpropane] |  |  | mass density ([1]; 298.15 K): 734.7 ± 2 kg/m3; refractive index ([2]; 298.15 K): 1.3664 ± 0.0011 |
| CC(=O)C(C)C [3-methyl-2-butanone] | 804.8 ± 2.1 kg/m3 | 1.3884 ± 0.0011 |  |
| CC(C)CCO [3-methylbutan-1-ol] | 808.4 ± 2.1 kg/m3 | 1.4075 ± 0.0011 |  |
| CCCC(=O)CCC [4-heptanone] | 817.6 ± 2.2 kg/m3 | 1.4068 ± 0.0011 |  |
| CC(=O)CC(C)C [4-methylpentan-2-one] |  | 1.3958 ± 0.0011 | mass density ([1]; 298.15 K): 796.1 ± 2.1 kg/m3 |
| CCCCCCCC/C=C\CCCCCCCCO [(Z)-9-octadecen-1-ol] | 849 ± 2.3 kg/m3 | 1.4601 ± 0.0011 |  |
| CCCC(=O)O [butanoic acid] |  | 1.3982 ± 0.0011 | mass density ([1]; 298.15 K): 952.3 ± 2.5 kg/m3 |
| CCC(C)=O [butanone] |  | 1.3793 ± 0.0011 | mass density ([1]; 298.15 K): 798.2 ± 2.1 kg/m3 |
| CC(=O)OC1CCCCC1 [cyclohexyl ethanoate] | 968.4 ± 2.6 kg/m3 | 1.4421 ± 0.0011 |  |
| CCCCCCCCCCO [decan-1-ol] | 829.6 ± 2.2 kg/m3 | 1.4374 ± 0.0011 |  |
| CCCCOC(=O)c1ccccc1C(=O)OCCCC [dibutyl phthalate] | 1047.1 ± 2.8 kg/m3 | 1.4909 ± 0.0011 |  |
| COC(=O)c1ccccc1C(=O)OC [dimethyl 1,2-benzenedicarboxylate] | 1190.4 ± 3.2 kg/m3 | 1.5135 ± 0.0011 |  |
| CCCCCCCCCCCCO [dodecan-1-ol] |  |  | mass density ([1]; 297.15 K): 831.1 ± 2.2 kg/m3 |
| CCOC(C)=O [ethyl acetate] | 900.1 ± 2.4 kg/m3 | 1.372 ± 0.0011 |  |
| CCCCCC [hexane] |  |  | mass density ([1]; 298.15 K): 660.4 ± 1.8 kg/m3; refractive index ([2]; 298.15 K): 1.3729 ± 0.0011 |
| CCCCCCCCCO [nonan-1-ol] | 828.5 ± 2.2 kg/m3 | 1.4327 ± 0.0011 |  |
| Cc1ccccc1 [toluene] | 866.7 ± 2.3 kg/m3 | 1.496 ± 0.0011 |  |
| CCCCCCCCN(CCCCCCCC)CCCCCCCC [trioctylamine] | 810.7 ± 2.2 kg/m3 |  | refractive index ([2]; 292.15 K): 1.4505 ± 0.0011 |
| O [water] | 999.9 ± 2.7 kg/m3 | 1.3324 ± 0.0011 |  |
